Data on four molecules can be found in EP0212822A1, “A composition containing a plant growth regulator and an alkanol and a method of using the same” (ICI AMERICAS INC., priority 1985, dated 1987).

Entries after “also recorded” stand apart in the source; their conditions may differ.

The test system of data set [1] is Liquidambar styraciflua (Sweetgum). Description: Trunk injection of PGR in ethanol or methanol, ratings. The data set is classed as in vivo. As for the experimental part: The examples which follow exemplify the improvements obtained by this invention. However, these examples are not intended to limit the scope of the invention. In Examples 1-41, the subject trees were injected at a distance approximately one foot from the soil line by drilling 7/32 inch diameter holes to a 2 inch depth at a 30-45° angle tangential to the trunk with a pressure injector (150 psi) purchased from the Asplundh Tree Expert Co., Company No. 346-3502. The results are expressed in terms of Retardation and Uniformity Ratings. The Retardation rating scale is as follows: • 0 = no retardataion • 1 = 1-20% retardation • 2 = 21-40% retardation • 3 = 41-60% retardation • 4 = 61-80% retardation • 5 = 81-100% retardation
The Uniformity Rating is a measure of the consistency of response to the treatment between different branches of the tree. The Uniformity scale employed is as follows: • 0 = no effect from PGR • 1 = poor • 2 = fair • 3 = acceptable • 4 = very good • 5 = excellent
20 grams of PGR were dissolved in 1 liter of solvent at room temperature and stirred until the solution was clear, approximately 20 minutes. The solution was injected into the trunk of Liquidambar styraciflua (Sweetgum).

In another data set the test system is Vicia faba (Broadbean). The data set can be described thus: Stem injection with hypodermic syringe, growth as % of control. The data set is classed as in vivo. Conditions: 0.1 ml injected, averaged over four replications. As for the experimental part:
10 grams of PGR were dissolved in 1 liter of solvent at room temperature and stirred until the solution was clean, approximately 20 minutes. 0.1 ml of the solution was injected, […] above the soil level, in Vicia faba (Broadbean) with a hypodermic syringe.

The nature of data set [2]: Adsorption of tracer dyes to sawdust. The class given is physicochemical, Birch and Ash. The protocol:
0.1 g of methylene blue and 0.1 g of acid fuschin were each dissolved in 1 liter of methanol (Me), […] methanol/water (Me/Wa) and water (Wa). 2 g (fresh weight) of sawdust taken from the active conductive tissues of Birch and Ash were combined with 20 ml of solution. The dye solutions were shaken overnight. The supernatant was decanted and the quantity of dye remaining in solution estimated by spectroscopy.

Setting [3] is: week 2, 20 grams of PGR in 1 liter Ethanol.
[4] abbreviates: week 2, 20 grams of PGR in 1 liter Methanol.
[5] abbreviates: week 6, 20 grams of PGR in 1 liter Ethanol.
Setting [6] is: week 6, 20 grams of PGR in 1 liter Methanol.
[7] abbreviates: 14 days, 10 grams of PGR in 1 liter Ethanol.
Setting [8] is: 14 days, 10 grams of PGR in 1 liter Methanol.
[9] abbreviates: 21 days, 10 grams of PGR in 1 liter Ethanol.
Where [10] appears, read: 21 days, 10 grams of PGR in 1 liter Methanol.

Regarding `CC(C)(C)C(O)C(Cc1ccc(Cl)cc1)n1cncn1` (stereo not drawn) [PGR-1], the “Retardation/ Uniformity Ratings at Indicated Week After Treatment” value in data set [1] (setting [3]) is given as 1 (1 = 1-20% retardation); in data set [1] (setting [4]), 1 (1 = 1-20% retardation); in data set [1] (setting [5]), 3 (3 = 41-60% retardation); in data set [1] (setting [6]), 4 (4 = 61-80% retardation). Besides, the “Growth (% Control) At Indicated Days After Treatment” value was 13 % Control in the data set on Vicia faba (Broadbean) (setting [7]), 12 % Control in the data set with Vicia faba (Broadbean) (setting [8]), 18 % Control in the data set on Vicia faba (Broadbean) (setting [9]) and 17 % Control with Vicia faba (Broadbean) (setting [10]).
For the molecule `CC(C)C(O)(c1ccc(OC(F)(F)F)cc1)c1cncnc1` (stereo not drawn) [PGR-2], the “Retardation/ Uniformity Ratings at Indicated Week After Treatment” value is on record as 1 (1 = 1-20% retardation) in data set [1] (setting [3]), 1 (1 = 1-20% retardation) in data set [1] (setting [4]), 3 (3 = 41-60% retardation) in data set [1] (setting [5]) and 3 (3 = 41-60% retardation) in data set [1] (setting [6]). The “Growth (% Control) At Indicated Days After Treatment” value in the data set on Vicia faba (Broadbean) (setting [7]) was 6 % Control; with Vicia faba (Broadbean) (setting [8]), 10 % Control; with Vicia faba (Broadbean) (setting [9]), 7 % Control; with Vicia faba (Broadbean) (setting [10]), 10 % Control.
Turning to `CC1=CC(=C(c2ccc(N)c(S(=O)(=O)O)c2)c2ccc(N)c(S(=O)(=O)O)c2)C=C(S(=O)(=O)O)C1=N` [acid fuschin], the “binding of dye to wood” value in data set [2] (either solvent (water and methanol)) was “binds only partially; also recorded: binds weakly”.
For `CN(C)c1ccc2nc3ccc(=[N+](C)C)cc-3sc2c1` [methylene blue], the “binding of dye to wood” value is “binds weakly” in data set [2] (methanol as solvent); “weakly” in data set [2] (methanol as solvent, listed as Methylene blue); “binding almost completely” in data set [2] (water as solvent); “binds strongly” in data set [2] (water as solvent, listed as Methylene blue).
